Where a name gives a salt, the structure may show the parent alone.
Target: T1, binding of KRAS^G12C to SOS1 (Homo sapiens, UniProt Q07889)
T1 construct: Tag1 (unspecified)
T1 sequence (Q07889 1-1333): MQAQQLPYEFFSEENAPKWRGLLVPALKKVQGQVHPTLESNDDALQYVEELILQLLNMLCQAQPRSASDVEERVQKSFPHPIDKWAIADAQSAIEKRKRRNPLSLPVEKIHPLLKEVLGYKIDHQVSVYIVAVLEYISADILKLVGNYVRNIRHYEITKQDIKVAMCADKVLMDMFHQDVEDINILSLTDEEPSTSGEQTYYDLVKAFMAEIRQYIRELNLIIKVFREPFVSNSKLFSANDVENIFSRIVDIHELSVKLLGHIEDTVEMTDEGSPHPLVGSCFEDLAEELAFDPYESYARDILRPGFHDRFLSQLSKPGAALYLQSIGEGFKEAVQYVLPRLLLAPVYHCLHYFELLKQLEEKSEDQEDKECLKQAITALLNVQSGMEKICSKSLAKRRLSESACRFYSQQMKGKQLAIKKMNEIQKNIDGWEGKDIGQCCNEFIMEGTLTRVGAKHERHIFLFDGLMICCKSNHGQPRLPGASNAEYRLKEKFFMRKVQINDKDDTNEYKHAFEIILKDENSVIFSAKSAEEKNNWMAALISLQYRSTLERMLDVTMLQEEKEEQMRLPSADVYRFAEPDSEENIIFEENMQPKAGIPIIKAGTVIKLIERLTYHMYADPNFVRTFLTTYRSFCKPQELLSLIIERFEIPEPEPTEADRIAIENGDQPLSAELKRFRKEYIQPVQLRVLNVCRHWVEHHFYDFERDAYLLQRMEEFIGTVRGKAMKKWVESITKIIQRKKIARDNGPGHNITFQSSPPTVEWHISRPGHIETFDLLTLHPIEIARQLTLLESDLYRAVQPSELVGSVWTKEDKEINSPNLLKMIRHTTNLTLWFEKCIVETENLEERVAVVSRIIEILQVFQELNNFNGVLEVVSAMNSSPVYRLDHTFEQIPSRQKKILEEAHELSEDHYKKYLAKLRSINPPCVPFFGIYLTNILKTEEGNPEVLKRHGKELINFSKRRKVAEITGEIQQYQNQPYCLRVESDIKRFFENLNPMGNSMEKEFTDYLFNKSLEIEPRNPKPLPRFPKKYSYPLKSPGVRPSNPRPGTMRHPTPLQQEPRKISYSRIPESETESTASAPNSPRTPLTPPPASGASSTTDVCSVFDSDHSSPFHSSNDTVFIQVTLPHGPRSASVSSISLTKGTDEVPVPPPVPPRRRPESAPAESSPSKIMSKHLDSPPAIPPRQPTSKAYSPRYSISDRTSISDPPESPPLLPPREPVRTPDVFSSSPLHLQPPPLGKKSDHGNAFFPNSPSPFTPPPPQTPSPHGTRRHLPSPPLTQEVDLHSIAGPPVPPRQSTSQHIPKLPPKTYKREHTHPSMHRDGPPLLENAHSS
Assay: Inhibition of the binding of KRAS^G12C to SOS1
Conditions: Tag1-SOS1 / Tag2-KRAS^G12C, 2 h incubation at room temperature; read-out: IC50 (nM), inhibitory activity on the binding of KRAS^G12C to SOS1
How it was run: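 Tag1-SOS1 and Tag2-KRAS^G12C mixed with serially diluted compound (final 0.25% DMSO), then anti-Tag1-Tb3+ and anti-Tag2-XL665 added for 2 h at room temperature. IC50 from curve fit of the TR-FRET signal.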

Compound COCCOc1cc2c(N[C@H](C)c3cc(C(F)(F)F)cc(N)n3)nc(C)nc2cc1OC [Example 51, (R)—N-(1-(6-Amino-4-(trifluoromethyl)pyridin-2-yl)ethyl)-7-methoxy-6-(2-methoxyethoxy)-2-methylquinazolin-4-amine] has an IC50 of 24 nM.
With COCCOc1cc2c(N[C@H](C)c3cc(N)cc(C(F)(F)F)n3)nc(C)nc2cc1OC [Example 52, (R)—N-(1-(4-Amino-6-(trifluoromethyl)pyridin-2-yl)ethyl)-7-methoxy-6-(2-methoxyethoxy)-2-methylquinazolin-4-amine] the IC50 was 31 nM.
COc1cc2nc(C)nc(N[C@H](C)c3cc(N)cc(C(F)(F)F)c3)c2cc1OCCCOC1CC1 [Example 53, (R)—N-(1-(3-Amino-5-(trifluoromethyl)phenyl)ethyl)-6-(3-cyclopropoxypropoxy)-7-methox y-2-methylquinazolin-4-amine] was tested, and the IC50 was 3.7 nM.
With CNCC1(COc2cc3c(N[C@H](C)c4cccc(C(F)(F)F)c4F)nc(C)nc3cc2OC)CC1 [Example 54, (R)—N-(1-(2-Fluoro-3-(trifluoromethyl)phenyl)ethyl)-7-methoxy-2-methyl-6-((1-((methylamino)methyl)cyclopropyl)methoxy)quinazolin-4-amine] the IC50 was 15 nM.
Work on COc1cc2nc(C)nc(N[C@H](C)c3cccc(C(F)(F)F)c3F)c2cc1OCC1(CO)CC1 [Example 55, (R)-(1-(((4-((1-(2-Fluoro-3-(trifluoromethyl)phenyl)ethyl)amino)-7-methoxy-2-methylquinazolin-6-yl)oxy)methyl)cyclopropyl)methanol] yielded an IC50 of 16 nM.
Work on COCC1(COc2cc3c(N[C@H](C)c4cc(N)cc(C(F)(F)F)c4)nc(C)nc3cc2OC)CC1 [Example 56, (R)—N-(1-(3-Amino-5-(trifluoromethyl)phenyl)ethyl)-7-methoxy-6-((1-(methoxymethyl)cyclopropyl)methoxy)-2-methylquinazolin-4-amine] yielded an IC50 of 9.6 nM.
[2H]C([2H])([2H])OCCOc1cc2c(N[C@H](C)c3cc(N)cc(C(F)(F)F)c3)nc(C)nc2cc1OC [Example 57, (R)—N-(1-(3-Amino-5-(trifluoromethyl)phenyl)ethyl)-7-methoxy-6-(2-(methoxy-d3)ethoxy)-2-methylquinazolin-4-amine] showed an IC50 of 5.2 nM.
For COc1cc2nc(C)nc(N[C@H](C)c3cc(N)cc(C(F)(F)F)c3)c2cc1OCCOCC1CC1 [Example 58, (R)—N-(1-(3-Amino-5-(trifluoromethyl)phenyl)ethyl)-6-(2-(cyclopropylmethoxy)ethoxy)-7-methoxy-2-methylquinazolin-4-amine], the IC50 was 5.1 nM.
Work on COCC(COC)Oc1cc2c(N[C@H](C)c3cc(N)cc(C(F)(F)F)c3)nc(C)nc2cc1OC [Example 59, (R)—N-(1-(3-Amino-5-(trifluoromethyl)phenyl)ethyl)-6-((1,3-dimethoxypropan-2-yl)oxy)-7-methoxy-2-methylquinazolin-4-amine] yielded an IC50 of 4.7 nM.
COc1cc2nc(C)nc(N[C@H](C)c3cc(C(F)(F)F)cc(N)n3)c2cc1OCCOC1COC1 [Example 60, (R)—N-(1-(6-Amino-4-(trifluoromethyl)pyridin-2-yl)ethyl)-7-methoxy-2-methyl-6-(2-(oxetan-3-yloxy)ethoxy)quinazolin-4-amine] was tested, and the IC50 was 18 nM.
Work on COc1cc2nc(C)nc(N[C@H](C)c3cc(N)cc(C(F)(F)F)c3)c2cc1OCCOC1(C)COC1 [Example 61, (R)—N-(1-(3-Amino-5-(trifluoromethyl)phenyl)ethyl)-7-methoxy-2-methyl-6-(2-((3-methyloxetan-3-yl)oxy)ethoxy)quinazolin-4-amine] yielded an IC50 of 3.7 nM.
Compound COc1cc2nc(C)nc(N[C@H](C)c3cc(N)cc(C(F)(F)F)c3)c2cc1OCCOc1cccnc1 [Example 62, (R)—N-(1-(3-Amino-5-(trifluoromethyl)phenyl)ethyl)-7-methoxy-2-methyl-6-(2-(pyridin-3-yloxy)ethoxy)quinazolin-4-amine] has an IC50 of 5.3 nM.
Compound COCC1(C(C)Oc2cc3c(N[C@H](C)c4cc(N)cc(C(F)(F)F)c4)nc(C)nc3cc2OC)CC1 (stereo partly drawn) [Example 63, N—((R)-1-(3-Amino-5-(trifluoromethyl)phenyl)ethyl)-7-methoxy-6-(1-(1-(methoxymethyl)cyclopropyl)ethoxy)-2-methylquinazolin-4-amine] has an IC50 of 12 nM.
COc1cc2nc(C)nc(N[C@H](C)c3cc(N)cc(C(F)(F)F)c3)c2cc1OCCOC1(C)CCC1 [Example 64, (R)—N-(1-(3-Amino-5-(trifluoromethyl)phenyl)ethyl)-7-methoxy-2-methyl-6-(2-(1-methylcyclobutoxy)ethoxy)quinazolin-4-amine] showed an IC50 of 8.7 nM.
In the case of COc1cc2nc(C)nc(N[C@H](C)c3cc(N)cc(C(F)(F)F)c3)c2cc1OCC1(C(C)OC)CC1 (stereo partly drawn) [Example 65, N—((R)-1-(3-Amino-5-(trifluoromethyl)phenyl)ethyl)-7-methoxy-6-((1-(1-methoxyethyl)cyclopropyl)methoxy)-2-methylquinazolin-4-amine], the IC50 is reported as 16 nM.
COc1cc2nc(C)nc(N[C@H](C)c3cc(N)cc(C(F)(F)F)c3)c2cc1OCCO[C@H]1CCOC1 [Example 66, N—((R)-1-(3-Amino-5-(trifluoromethyl)phenyl)ethyl)-7-methoxy-2-methyl-6-(2-(((S)-tetrahydrofuran-3-yl)oxy)ethoxy)quinazolin-4-amine] was tested, and the IC50 was 7 nM.
Work on COc1cc2nc(C)nc(N[C@H](C)c3cc(N)cc(C(F)(F)F)c3)c2cc1OCCO[C@@H]1CCOC1 [Example 67, N—((R)-1-(3-Amino-5-(trifluoromethyl)phenyl)ethyl)-7-methoxy-2-methyl-6-(2-(((R)-tetrahydrofuran-3-yl)oxy)ethoxy)quinazolin-4-amine] yielded an IC50 of 4.2 nM.
With COc1cc2nc(C)nc(N[C@H](C)c3cc(N)cc(C(F)(F)F)c3)c2cc1OC[C@@H](C)OC1COC1 [Example 68, N—((R)-1-(3-Amino-5-(trifluoromethyl)phenyl)ethyl)-7-methoxy-2-methyl-6-((R)-2-(oxetan-3-yloxy)propoxy)quinazolin-4-amine] the IC50 was 6.2 nM.
COc1cc2nc(C)nc(N[C@H](C)c3cc(N)cc(C(F)(F)F)c3)c2cc1OC[C@H](C)OC1COC1 [Example 69, N—((R)-1-(3-Amino-5-(trifluoromethyl)phenyl)ethyl)-7-methoxy-2-methyl-6-((S)-2-(oxetan-3-yloxy)propoxy)quinazolin-4-amine] gave an IC50 of 6.2 nM.
Compound COc1cc2nc(C)nc(N[C@H](C)c3cc(N)cc(C(F)(F)F)n3)c2cc1OCCOC1COC1 [Example 70, (R)—N-(1-(4-Amino-6-(trifluoromethyl)pyridin-2-yl)ethyl)-7-methoxy-2-methyl-6-(2-(oxetan-3-yloxy)ethoxy)quinazolin-4-amine] has an IC50 of 24 nM.
COCCOc1cc2c(N[C@@H](C)c3cccc(C(F)(F)C(C)(C)O)c3F)nc(C)nc2cc1OC [Example 71, (S)-1,1-Difluoro-1-(2-fluoro-3-(1-((7-methoxy-6-(2-methoxyethoxy)-2-methylquinazolin-4-yl)amino)ethyl)phenyl)-2-methylpropan-2-ol formate] gave an IC50 of 314 nM.
In the case of COc1cc2nc(C)nc(N[C@H](C)c3cc(N)cc(C(F)(F)F)n3)c2cc1OCCOC1(C)CCC1 [Example 73, (R)—N-(1-(4-Amino-6-(trifluoromethyl)pyridin-2-yl)ethyl)-7-methoxy-2-methyl-6-(2-(1-methylcyclobutyloxy)ethoxy)quinazolin-4-amine], the IC50 is reported as 15 nM.
Compound COCCOc1cc2c(N[C@H](C)c3cc(C(F)(F)C(C)(C)O)ccn3)nc(C)nc2cc1OC [Example 75] has an IC50 of 40 nM.
With COCCOc1cc2c(N[C@H](C)c3cccc(C(F)(F)C(C)(C)O)n3)nc(C)nc2cc1OC [Example 76] the IC50 was 188 nM.
With COCCOc1cc2c(N[C@H](C)c3cncc(C(F)(F)C(C)(C)O)c3)nc(C)nc2cc1OC [Example 77] the IC50 was 924 nM.
For COCCOc1cc2c(N[C@H](C)c3cccc(S(N)(=O)=O)c3)nc(C)nc2cc1OC [Example 84, (R)-3-(1-((7-Methoxy-6-(2-methoxyethoxy)-2-methylquinazolin-4-yl)amino)ethyl)benzenes ulfonamide], the IC50 was 18 nM.
